Measured values from paper PMC3420360 (Bioorganic & medicinal chemistry letters, 2010).

How the values were obtained:
[1] = target: T1, rat TRPV1 (Rattus norvegicus, UniProt O35433); assay: functional 45Ca2+ uptake assay, agonism; type: cell-based; conditions: for functional pattern of agonism/antagonism: 45Ca2+ uptake, rat TRPV1 in CHO cells, result in words; for fold less potent than RTX for functional activity: agonism EC50 versus RTX
[2] = target: T1, rat TRPV1; type: cell-based; conditions: Ki(ant) versus 5'-iodo RTX under the same assay conditions

T1 sequence (O35433 whole entry): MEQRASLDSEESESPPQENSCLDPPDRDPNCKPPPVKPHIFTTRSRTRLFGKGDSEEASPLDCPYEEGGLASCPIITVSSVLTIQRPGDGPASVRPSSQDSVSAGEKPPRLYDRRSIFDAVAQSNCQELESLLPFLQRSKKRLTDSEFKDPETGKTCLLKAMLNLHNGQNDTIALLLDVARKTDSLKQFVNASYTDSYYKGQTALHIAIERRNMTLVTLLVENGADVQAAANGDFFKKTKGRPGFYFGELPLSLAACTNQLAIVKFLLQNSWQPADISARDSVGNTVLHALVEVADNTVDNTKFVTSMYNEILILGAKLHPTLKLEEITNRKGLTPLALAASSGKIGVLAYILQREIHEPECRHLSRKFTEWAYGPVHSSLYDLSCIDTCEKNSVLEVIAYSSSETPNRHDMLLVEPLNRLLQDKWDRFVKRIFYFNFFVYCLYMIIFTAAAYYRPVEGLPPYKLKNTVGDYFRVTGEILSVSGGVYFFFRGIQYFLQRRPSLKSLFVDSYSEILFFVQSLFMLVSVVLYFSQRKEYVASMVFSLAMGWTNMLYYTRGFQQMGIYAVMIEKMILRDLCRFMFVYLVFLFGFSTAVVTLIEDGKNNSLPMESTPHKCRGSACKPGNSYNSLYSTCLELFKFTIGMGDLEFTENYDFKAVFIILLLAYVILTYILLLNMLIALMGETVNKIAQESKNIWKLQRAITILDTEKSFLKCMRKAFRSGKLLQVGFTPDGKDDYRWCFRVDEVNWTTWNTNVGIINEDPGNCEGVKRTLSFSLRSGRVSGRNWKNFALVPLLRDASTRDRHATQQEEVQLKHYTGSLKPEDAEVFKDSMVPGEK

| SMILES | functional pattern of agonism/antagonism [1] | other results |
| --- | --- | --- |
| C=C(C)[C@@]12C[C@@H](C)C34OC(Cc5ccccc5)(OC1[C@@H]3C=C(COC(=O)Cc1cc(Br)cc(Br)c1)C[C@]1(O)C(=O)C(C)=C[C@@H]41)O2 (some centres unmarked) [compound 35] | full agonist | – |
| C=C(C)[C@@]12C[C@@H](C)C34OC(Cc5ccccc5)(OC1[C@@H]3C=C(COC(=O)Cc1cc(Cl)c(O)c(OC)c1)C[C@]1(O)C(=O)C(C)=C[C@@H]41)O2 (some centres unmarked) [compound 32] | full agonists | fold less potent than RTX for functional activity [1]: 21 fold |
| C=C(C)[C@@]12C[C@@H](C)C34OC(Cc5ccccc5)(OC1[C@@H]3C=C(COC(=O)Cc1cc(F)c(N)c(OC)c1)C[C@]1(O)C(=O)C(C)=C[C@@H]41)O2 (some centres unmarked) [compound 37] | full agonist | fold less potent than the parent 36 (agonism) ([1]; agonism EC50 versus 4-amino RTX (36)): 2.5 fold |
| C=C(C)[C@@]12C[C@@H](C)C34OC(Cc5ccccc5)(OC1[C@@H]3C=C(COC(=O)Cc1cc(Br)c(N)c(OC)c1)C[C@]1(O)C(=O)C(C)=C[C@@H]41)O2 (some centres unmarked) [compound 39, 5-bromo-4-amino RTX] | full antagonist | fold more potent than I-RTX as antagonist [2]: 4 fold |
| C=C(C)[C@@]12C[C@@H](C)C34OC(Cc5ccccc5)(OC1[C@@H]3C=C(COC(=O)Cc1cc(I)c(O)c(OC)c1)C[C@]1(O)C(=O)C(C)=C[C@@H]41)O2 (some centres unmarked) [compound 2, 5-iodo RTX, reference compound] | full antagonist | – |
| C=C(C)[C@@]12C[C@@H](C)C34OC(Cc5ccccc5)(OC1[C@@H]3C=C(COC(=O)Cc1cc(Br)c(O)c(OC)c1)C[C@]1(O)C(=O)C(C)=C[C@@H]41)O2 (some centres unmarked) [compound 33] | partial antagonist | – |
| C=C(C)[C@@]12C[C@@H](C)C34OC(Cc5ccccc5)(OC1[C@@H]3C=C(COC(=O)Cc1ccc(N)c(OC)c1)C[C@]1(O)C(=O)C(C)=C[C@@H]41)O2 (some centres unmarked) [compound 36, 4-amino RTX] | potent full agonism | fold less potent than RTX (Ki and EC50) ([1]; both binding Ki and agonism EC50 compared with RTX): 2–3 fold |
| C=C(C)[C@@]12C[C@@H](C)C34OC(Cc5ccccc5)(OC1[C@@H]3C=C(COC(=O)Cc1cc(Cl)c(N)c(OC)c1)C[C@]1(O)C(=O)C(C)=C[C@@H]41)O2 (some centres unmarked) [compound 38] | partial antagonist | – |
| C=C(C)[C@@]12C[C@@H](C)C34OC(Cc5ccccc5)(OC1[C@@H]3C=C(COC(=O)Cc1cc(F)c(O)c(OC)c1)C[C@]1(O)C(=O)C(C)=C[C@@H]41)O2 (some centres unmarked) [compound 31] | full agonists | fold less potent than RTX for functional activity [1]: 9 fold |
